PubChem BioAssay AID179 (DTP/NCI, 2004)
Activity calls are given as the source filed them.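 Rule for the calls: active = compounds giving half or more protection of infected cells from virus-caused growth loss, again on retest; inactive = the rest.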

Tested on: CEM cells HIV-1 protection, formazan growth assay
Assay: NCI AIDS Antiviral Assay
Details: for IC50: measured here: growth of uninfected CEM cells
Method in brief: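 Protection of CEM cells against HIV-1 measured as cell growth via soluble formazan read-out, with five concentrations tested on both infected and uninfected cells; failure to protect may reflect toxicity.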

| Structure (SMILES) | EC50 [µM] | IC50 [µM] | outcome |
| --- | --- | --- | --- |
| Cc1cc2c(c(C(=O)NCC(=O)N[C@@H](C)C(=O)OCc3ccccc3)c1)Oc1c(cc(C)cc1C(=O)NCC(=O)N[C@@H](C)C(=O)OCc1ccccc1)S2 | > 200 | 7.76 | – |
| COC(=O)C1=C(C)NC2=C(C(=O)CCC2)C1CCS(C)=O (stereo not given) | > 200 | > 200 | – |
| C=C(c1ccccc1)c1ccccc1-c1cc(-c2ccccc2)cc(-c2ccccc2)n1 | > 200 | 25.1 | – |
| CCN(CC)CCNc1ccc(C)c2sc3ccccc3c(=O)c12 | > 200 | 11 | – |
| O=c1c2c(c1=O)-c1ccccc1CN2 | > 200 | > 200 | – |
| COC(=O)c1c2c(c(-c3ccccc3)c3c1-c1nc(Cl)ccc1CC3)CCc1ccc(Cl)nc1-2 | > 20.4 | > 20.4 | – |
| CC1OC(=O)C(O)=C1O (stereo not given) | – | – | inactive |
| O=c1[nH]c2ccccc2c(O)c1Cc1c(O)c2ccccc2[nH]c1=O | > 25.1 | > 25.1 | – |
| O=Nc1ccc(C=C2C(=O)C=CC2=O)cc1 | > 200 | 10.2 | – |
| CC(=O)c1sc(Nc2nnc(-c3ccc(-c4nnc(Nc5nc(C)c(C(C)=O)s5)o4)cc3)o2)nc1C | – | – | inactive |
| Cc1cccc(-c2nnc3s/c(=C\c4ccc5c(c4)OCO5)c(=O)n23)c1 | > 27.5 | > 27.5 | – |
| COc1c(O)ccc2oc3cccc(O)c3c(=O)c12 | > 200 | 110 | – |
| C[P@](=O)(CCSc1ccccc1)c1ccccc1 | > 468 | > 468 | – |
| Cc1ccc(S(=O)(=O)NN=C2C(C)CC(C(C)(C)C)CC2C)cc1 (stereo not given) | > 200 | 31.6 | – |
| CC(=O)N1C(c2[nH]c3ccccc3c2Cc2ccccc2)CCN1c1ccccc1 (stereo not given) | > 200 | 102 | – |
| CCCCN1C(=O)C2c3[nH]c4ccccc4c3C3CCCCC3C2C1=O (mixture of isomers) | – | – | inactive |
| CCOC(=O)C(Cl)(NC(=O)c1c(F)c(F)c(F)c(F)c1F)C(F)(F)F (stereo not given) | – | – | inactive |
| Cc1cn([C@H]2CN(O)C[C@@H](CO)O2)c(=O)[nH]c1=O | > 200 | > 200 | – |
| CCOC(=O)C1(C(=O)OCC)OC(C)=NC1(C(=O)OC)C(=O)OC | > 200 | > 200 | – |
| CCNC(=O)CCN(C(=O)O)S(=O)(=O)c1ccc(NC(=O)c2ccccc2)cc1 | > 603 | > 603 | – |
| O=[N+]([O-])C(/C=N/Nc1ccccc1)/C=N/Nc1ccccc1 | > 24.5 | > 24.5 | – |
| Cc1ncc([N+](=O)[O-])n1CC[N+](C)([O-])CCCCn1ccnc1[N+](=O)[O-] (stereo not given) | – | – | inactive |
| C=CN1C(=O)[C@H](Oc2ccccc2)[C@@H]1c1ccccc1 | > 135 | 63.1 | – |

| Structure (SMILES) | EC50 [µM] | IC50 [µM] | outcome |
| --- | --- | --- | --- |
| Cc1nc(-c2cc3ccccc3oc2=O)cs1 | – | – | inactive |
| CN(/N=C/c1ccccc1C(=O)O)C1=NCCCCN1 | > 200 | > 200 | – |
| Cn1c2ccccc2c2nn3cnnc3nc21 | > 32.4 | > 32.4 | – |
| Cc1ccc2c(N(CCO)CCO)cc(-c3ccccc3)nc2n1 | > 200 | > 200 | – |
| O=S1Nc2c(Cl)cc(Cl)c3c(Cl)cc(Cl)c(c23)N1 | – | – | inactive |
| Nc1ccc(C(=O)NN2C(=O)C(Cl)C2c2cc(Br)cc(Br)c2O)cc1 (stereo not given) | > 200 | 15.5 | – |
| COc1ccc2cc(C(C)C(=O)N3CCOC3=O)ccc2c1 (stereo not given) | > 200 | > 200 | – |
| CC(/C=N/NC1=NCCCN1)=N\NC1=NCCCN1 | > 200 | > 200 | – |
| COc1ccc(CCN2CCC(C#N)(c3ccc(OC)c(OC)c3)CC2)cc1OC | > 57.5 | > 57.5 | – |
| C=C1C(=O)O[C@H]2C1C[C@H](O)[C@@]1(C)OC1CC[C@@]1(C)O[C@H]21 (stereo not given in full) | > 200 | 6.61 | – |
| COc1ccc(N=NN2CCCC2)cc1 | > 200 | 15.5 | – |
| CO/C(=N\N=C(/C)C(F)(F)F)c1ccncc1 | > 200 | > 200 | – |
| O=C1C2C=CC(n3[nH]c(=O)n(Cc4ccccc4)c3=O)CC2C(=O)N1c1ccc(Br)cc1 (stereo not given) | > 501 | 135 | – |
| COC(=O)CP1(=O)OC2C(C3CCC2(C)C3(C)C)N1c1cc(C(F)(F)F)cc(C(F)(F)F)c1 (stereo not given) | > 200 | – | – |
| COC(=O)Cc1cccc2c(=O)c(S(=O)(=O)NC(=O)Nc3ccc(Cl)cc3)c(-c3ccccc3)oc12 | > 200 | 41.7 | – |
| COc1ccc(C2C(=O)C(Cl)N2Nc2nc(C)cc(=O)[nH]2)cc1OC (stereo not given) | > 186 | 20.4 | – |
| Cn1cccnc1=O | > 200 | > 200 | – |
| CCO/C=C1\C(=O)N(C(C)=O)c2cc(OC)c(OC)cc21 | > 200 | 26.9 | – |
| C[C@@H]1C(=O)O[C@H]1[C@H](O)CO | > 200 | > 200 | – |
| CNC(=O)CNC(=O)C(Cc1ccc(NC(=O)CCCCC(C)=O)cc1)NC(=O)C(CCC(=O)OCc1ccccc1)NC(=O)OC(C)(C)C (stereo not given) | > 200 | > 200 | – |
| COc1cc(C)c2c(c1)C=C1C(=O)C(=O)C(C(C)C)=C(O)C1=CC2 | – | – | inactive |
| CCN(CC)c1ccc2cc3ccc(=[N+](CC)CC)cc-3oc2c1 | > 501 | 0.158 | – |
| CC(=O)OC1CCN(C)CC1CCl (stereo not given) | > 200 | > 200 | – |

| Structure (SMILES) | EC50 [µM] | IC50 [µM] | outcome |
| --- | --- | --- | --- |
| CC(=O)N1C(=O)C(C)(C2=CC(=O)c3ccccc3C2=O)c2ccc(Br)cc21 (stereo not given) | > 200 | 2.29 | – |
| O=C1c2ccccc2SC[C@@H]2CCCN12 | > 407 | > 407 | – |
| Cc1c(Cl)cccc1NC(=O)/C(Cl)=C(\Cl)C(=O)O | – | – | inactive |
| O=c1onc2c3ccccc3ncn12 | > 200 | > 200 | – |
| CCN(CC)CCN=Cc1c(O)c(O)c(C(C)C)c2cc(C)c(-c3c(C)cc4c(C(C)C)c(O)c(O)c(C=NCCN(CC)CC)c4c3O)c(O)c12 | > 200 | 1.02 | – |
| NC(=S)C(=S)N=Cc1c(O)c2ccccc2oc1=O | > 200 | 102 | – |
| COc1cc(OC)c(/C=C/c2ccc3ccccc3[n+]2[O-])c(OC)c1 | > 56.2 | > 56.2 | – |
| CCCCCCCCC1=C(OC)C(=O)c2ccc(COC(C)=O)nc2C1=O | – | – | inactive |
| CCCCCCCCCCCC(=O)OC[C@@H](C[As](=O)(O)O)OC(=O)CCCCCCCCCCC | > 200 | 3.89 | – |
| CC(=O)Nc1ccc(/C=C/C(=O)c2sc(-c3cccnc3)nc2C)cc1 | > 51.3 | > 51.3 | – |
| CC(=O)OCCCCn1cnc2nc(Nc3ccccc3)nc(Cl)c21 | > 200 | 135 | – |
| CCN(CC)CC(=O)Nc1cc(C)ccc1Cl | > 200 | > 200 | – |
| O=S(=O)(c1cc(Cl)ccc1Cl)N1CCN(c2cccc(Cl)c2)CC1 | – | – | inactive |
| O=C1c2cc(Cl)ccc2-n2cnnc2C2CSCN12 (stereo not given) | > 200 | > 200 | – |
| CC1=CC(=O)Nc2cncnc2N1 | > 77.6 | > 77.6 | – |
| CCOC(=O)C1=NN(c2ccc(Cl)cc2)C2=CC(C)=NN(C)C(=S)N21 | > 200 | > 200 | – |
| C=CCc1ccccc1CC1(OCC)OC(=O)c2ccccc21 (stereo not given) | > 43.7 | > 43.7 | – |
| C[C@]12CCC(=O)C=C1CC[C@@H]1[C@@H]2C(=O)C[C@@]2(C)[C@H]1CC[C@]2(O)C(=O)CO | > 200 | > 200 | – |
| N#Cc1ccsc1C#N | > 200 | > 200 | – |
| N#CN=C(N)NC(=O)/C=C/C=C/c1ccc(Cl)cc1 | – | – | inactive |
| COP(=O)(OC)/C(=C/c1cnc[nH]1)NC=O | > 200 | > 200 | – |
| CC1(C)OC2C3CC(C2O1)C1C3C2(Cl)CC1(Cl)C(Cl)=C2Cl (stereo not given) | – | – | inactive |
| NS(=O)(=O)c1nnc(/N=C(/CCC(=O)O)C(=O)O)s1 | > 200 | > 200 | – |

| Structure (SMILES) | EC50 [µM] | IC50 [µM] | outcome |
| --- | --- | --- | --- |
| COc1ccc(CCn2cnn3c(=O)c4ccccc4nc3c2=O)cc1OC | > 13.8 | > 13.8 | – |
| CCOC(=O)NC(NC(C)CC)(C(F)(F)F)C(F)(F)F (stereo not given) | > 200 | > 200 | – |
| CC(C)=CC1(C)/C(=N\O)C(C)(CC(C)C)C(=O)N1O (stereo not given) | > 933 | > 933 | – |
| C=C(Br)N(CC)CC | > 251 | > 251 | – |
| CC(C)(c1ccc(OP2(=O)OCC3(CC=CCC3)CO2)cc1)c1ccc(OP2(=O)OCC3(CC=CCC3)CO2)cc1 (stereo not given) | > 200 | 22.9 | – |
| CCN(CC)c1cc2c3c(c1)CCCN3CCC2 | > 100 | 95.5 | – |
| N#C/C(=C\c1ccc2[nH]ccc2c1)C(=O)c1ccc(O)c(O)c1 | > 589 | 102 | – |
| O=C(/C=C/c1ccc(OCC(=O)N2CCN(c3ccccc3)CC2)cc1)c1ccccc1 | > 23.4 | > 23.4 | – |
| CC1COS(=O)(=O)CS(=O)(=O)O1 (stereo not given) | > 1150 | > 1150 | – |
| Nc1ccc(Sc2nnc(N)s2)cc1 | > 224 | > 224 | – |
| COC(=O)C1=C(C(=O)OC)SC(=C2c3ccsc3-c3sccc32)S1 | > 200 | > 200 | – |
| CCc1nc2ccccn2n1 | > 200 | > 200 | – |
| Cc1c(N)nc(C(CC(N)=O)NCC(N)C(N)=O)nc1C(=O)NC(C(=O)NC(C)C(O)C(C)C(=O)NC(C(=O)NCCc1nc(-c2nc(C(=O)NCCCNCCCCN)cs2)cs1)C(C)O)C(OC1OC(CO)C(O)C(O)C1OC1OC(CO)C(O)C(OC(N)=O)C1O)c1cnc[nH]1 (stereo not given) | – | – | inactive |
| COc1cc(OC)c(C(=O)[O][Sn]([c]2ccccc2)([c]2ccccc2)[c]2ccccc2)cc1OC | > 200 | 0.0631 | – |
| O=C(NC(O)(C(F)(F)F)C(F)(F)F)c1ccccc1 | > 200 | 129 | – |
| N#C/C(=C\c1cc(O)c(O)c(O)c1)C(=O)NCCCCCNC(=O)/C(C#N)=C/c1cc(O)c(O)c(O)c1 | > 200 | 38 | – |
| CCOC(=O)c1cc(C2CCN(c3ccccc3)C2=O)c(C(=O)/C=C(/C)N)[nH]1 (stereo not given) | 57.5 | > 200 | – |
| CCCCC(=O)NS(=NC(=O)c1ccccc1)C(Cl)(Cl)Cl (stereo not given) | > 200 | > 200 | – |
| COc1ccc2[nH]cc(C(=O)C(=O)NC34CC5CC(CC(C5)C3)C4)c2c1 | > 200 | 6.03 | – |
| CCc1ccc2nccc(NCCCN(C)C)c2c1[N+](=O)[O-] | > 200 | 87.1 | – |
| Cc1c(CN2CCOCC2)c(CN2CCOCC2)c(C)n1-c1ccc(Cl)cn1 | > 200 | > 200 | – |
